pIC50: −log10 of the molar value.
Tested on: 616215-338-R-J1-PDC complex spheroid growth, % test/control
Assay: Anticancer human tumor 616215-338-R-J1-PDC patient-derived colon adenocarcinoma cell line growth inhibition [Asc]
Conditions: for pIC50: curve of first compound; for viability, T/C: stronger effect = lower value
Outline: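 Stromal components (HUVEC and hMSC) are co-assembled with the cancer cells into multicellular spheroids. Drugs are then added singly or paired, at concentrations falling by half-log increments from a clinically achievable maximum, capped at 10 microM without known Cmax.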
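Also: spheroids exposed to agents for seven days before readout.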
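For viability, T/C in this document: 100% = DMSO vehicle control viability.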

## CCN1CCN(Cc2ccc(Nc3ncc(F)c(-c4cc(F)c5nc(C)n(C(C)C)c5c4)n3)nc2)CC1 + CNC(C)C(=O)NC1CN(S(=O)(=O)c2cccc(S(=O)(=O)N3CCC4CCC(C(=O)NC(c5ccccc5)c5ccccc5)N4C(=O)C(NC(=O)C(C)NC)C3)c2)CCC2CCC(C(=O)NC(c3ccccc3)c3ccccc3)N2C1=O
Second compound 0.00316 µM
  pIC50: 6.58
Second compound 0.01 µM
  pIC50: 6.53
Second compound 0.0316 µM
  pIC50: 6.23
Second compound 0.1 µM
  pIC50: 6.36
Second compound 0.316 µM
  pIC50: 6.41
Second compound 1 µM
  pIC50: 6.26
Second compound 0.00316 µM, first compound 0.00316 µM
  viability, T/C: 105%
Second compound 0.00316 µM, first compound 0.01 µM
  viability, T/C: 105%
Second compound 0.00316 µM, first compound 0.0316 µM
  viability, T/C: 92.1%
Second compound 0.00316 µM, first compound 0.1 µM
  viability, T/C: 92.4%
Second compound 0.00316 µM, first compound 0.316 µM
  viability, T/C: 41.5%
Second compound 0.00316 µM, first compound 1 µM
  viability, T/C: 16%
Second compound 0.01 µM, first compound 0.00316 µM
  viability, T/C: 106%
Second compound 0.01 µM, first compound 0.01 µM
  viability, T/C: 112%
Second compound 0.01 µM, first compound 0.0316 µM
  viability, T/C: 99.2%
Second compound 0.01 µM, first compound 0.1 µM
  viability, T/C: 60.1%
Second compound 0.01 µM, first compound 0.316 µM
  viability, T/C: 58%
Second compound 0.01 µM, first compound 1 µM
  viability, T/C: 18.8%
Second compound 0.0316 µM, first compound 0.00316 µM
  viability, T/C: 100%
Second compound 0.0316 µM, first compound 0.01 µM
  viability, T/C: 114%
Second compound 0.0316 µM, first compound 0.0316 µM
  viability, T/C: 90.9%
Second compound 0.0316 µM, first compound 0.1 µM
  viability, T/C: 90%
Second compound 0.0316 µM, first compound 0.316 µM
  viability, T/C: 87.9%
Second compound 0.0316 µM, first compound 1 µM
  viability, T/C: 19.5%
Second compound 0.1 µM, first compound 0.00316 µM
  viability, T/C: 107%
Second compound 0.1 µM, first compound 0.01 µM
  viability, T/C: 105%
Second compound 0.1 µM, first compound 0.0316 µM
  viability, T/C: 102%
Second compound 0.1 µM, first compound 0.1 µM
  viability, T/C: 67.7%
Second compound 0.1 µM, first compound 0.316 µM
  viability, T/C: 73.3%
Second compound 0.1 µM, first compound 1 µM
  viability, T/C: 18.9%
Second compound 0.316 µM, first compound 0.00316 µM
  viability, T/C: 111%
Second compound 0.316 µM, first compound 0.01 µM
  viability, T/C: 107%
Second compound 0.316 µM, first compound 0.0316 µM
  viability, T/C: 90.4%
Second compound 0.316 µM, first compound 0.1 µM
  viability, T/C: 61.8%
Second compound 0.316 µM, first compound 0.316 µM
  viability, T/C: 61.3%
Second compound 0.316 µM, first compound 1 µM
  viability, T/C: 33.3%
Second compound 1 µM, first compound 0.00316 µM
  viability, T/C: 100%
Second compound 1 µM, first compound 0.01 µM
  viability, T/C: 111%
Second compound 1 µM, first compound 0.0316 µM
  viability, T/C: 101%
Second compound 1 µM, first compound 0.1 µM
  viability, T/C: 101%
Second compound 1 µM, first compound 0.316 µM
  viability, T/C: 67.8%
Second compound 1 µM, first compound 1 µM
  viability, T/C: 31.3%
